From the supplement of paper PMC11061612

Tests used:
[1] = tested on: SK-GT-2 (Gastric Carcinoma); assay: combination Emax (second highest fraction inhibited in the dose matrix, 72 h); higher = more inhibition; extreme values may be limits of the assay
How it was run: (§1)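 After 24 hours at 37°C and 5% CO2 in 1536-well plates, cells in DMEM/F12 or RPMI plus 10% FBS received two-drug dose matrices for 72 hours. Viability came from CellTiter-Glo 2.0 luminescence and was scaled as inhibition, anchored at 0 by vehicle wells and at 1 by blank wells. Combination Emax is taken as the second-highest inhibition in the matrix, and Bliss excess as the observed combination effect less EA + EB − EA·EB, with EA and EB the single-agent effects.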

[2] = tested on: NCI-H3122 (Lung Adenocarcinoma); assay: as above
How it was run: as §1

[3] = tested on: MN-60 (B-Lymphoblastic Leukemia); assay: as above
How it was run: as §1

[4] = tested on: ESO51 (Esophageal Adenocarcinoma); assay: as above
How it was run: as §1

[5] = tested on: T-T (Esophageal Squamous Cell Carcinoma); assay: as above
How it was run: as §1

RD (Rhabdomyosarcoma) = assay: as above
How it was run: as §1

[6] = tested on: CW-2 (Colorectal Carcinoma); assay: as above
How it was run: as §1

[7] = tested on: VMRC-RCZ (Kidney Carcinoma); assay: as above
How it was run: as §1

[8] = tested on: DAN-G (Pancreatic Carcinoma); assay: as above
How it was run: as §1

NCI-H2731 (Mesothelioma) = assay: as above
How it was run: as §1

[9] = tested on: SNU-398 (Hepatocellular Carcinoma); assay: as above
How it was run: as §1

[10] = tested on: DMS-114 (Small Cell Lung Carcinoma); assay: as above
How it was run: as §1

[11] = tested on: SU-DHL-5 (B-Cell Non-Hodgkin's Lymphoma); assay: as above
How it was run: as §1

[12] = tested on: COR-L279 (Small Cell Lung Carcinoma); assay: as above
How it was run: as §1

[13] = tested on: NCI-H661 (Non-Small Cell Lung Carcinoma); assay: as above
How it was run: as §1

[14] = tested on: KYSE-270 (Esophageal Squamous Cell Carcinoma); assay: as above
How it was run: as §1

M059J (Glioblastoma) = assay: as above
How it was run: as §1

[15] = tested on: HCC1187 (Breast Carcinoma); assay: as above
How it was run: as §1

[16] = tested on: SK-GT-4 (Esophageal Adenocarcinoma); assay: as above
How it was run: as §1

[17] = tested on: IM-95 (Gastric Carcinoma); assay: Bliss excess, mean over the matrix (fraction); higher = more synergy;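 further: after 72 h of two-drug dosing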
How it was run: as §1

Row | Compound | combination Emax [1] | combination Emax [2] | combination Emax [3] | combination Emax [4] | combination Emax [5] | combination Emax (RD (Rhabdomyosarcoma)) | combination Emax [6] | combination Emax [7] | combination Emax [8] | combination Emax (NCI-H2731 (Mesothelioma)) | combination Emax [9] | combination Emax [10] | combination Emax [11] | combination Emax [12] | combination Emax [13] | combination Emax [14] | combination Emax (M059J (Glioblastoma)) | combination Emax [15] | combination Emax [16] | Bliss excess [17]
1 | COc1cccc(OCCCN)c1-c1cc(Nc2cnc(C#N)cn2)n[nH]1 [Prexasertib] + CCc1c2c(nc3ccc(O)cc13)-c1cc3c(c(=O)n1C2)COC(=O)[C@]3(O)CC [SN-38] (first compound max 1 µM, 7x7, partner max 0.3 µM) | 0.975 | 0.933 | 0.825 | 0.879 | 0.971 | 0.958 | 0.612 | 0.625 | 0.933 | 0.663 | 0.725 | 0.716 | 1 | 1 | 0.889 | 1 | 0.98 | 0.866 | 0.743 | 0.0026
2 | COc1cccc(OCCCN)c1-c1cc(Nc2cnc(C#N)cn2)n[nH]1 [Prexasertib] + CN(C)CCCOc1ccc(-c2ccc3ncc4c(c3c2)n(C2CCOCC2)c(=O)n4C)cn1 [AZD0156] (first compound max 1 µM, 7x7, partner max 1 µM) | 0.823 | 0.697 | 0.546 | 0.788 | 0.597 | 0.536 | 0.401 | 0.342 | 0.824 | 0.406 | 0.436 | 0.408 | 1 | 0.809 | 0.744 | 1 | 0.658 | 0.645 | 0.724 | 0.0384
3 | COc1cccc(OCCCN)c1-c1cc(Nc2cnc(C#N)cn2)n[nH]1 [Prexasertib] + C[C@@H]1COCCN1C2=NC(=NC(=C2)C3(CC3)[S@](=N)(=O)C)C4=C5C=CNC5=NC=C4 [AZD6738] (first compound max 1 µM, 7x7, partner max 10 µM) | 0.81 | 0.794 | 0.562 | 0.779 | 0.742 | 0.539 | 0.614 | 0.398 | 0.769 | 0.395 | 0.437 | 0.514 | 1 | 0.835 | 0.744 | 0.999 | 0.686 | 0.614 | 0.713 | 0.0244
4 | COc1cccc(OCCCN)c1-c1cc(Nc2cnc(C#N)cn2)n[nH]1 [Prexasertib] + Cc1cc2ncnn2cc1Nc1ncc2c(n1)n(C1CCOCC1)c(=O)n2C [AZD7648] (first compound max 1 µM, 7x7, partner max 10 µM) | 0.833 | 0.664 | 0.555 | 0.777 | 0.65 | 0.571 | 0.474 | 0.362 | 0.816 | 0.385 | 0.441 | 0.477 | 1 | 0.803 | 0.75 | 1 | 0.693 | 0.614 | 0.735 | -0.0163
5 | COc1cccc(OCCCN)c1-c1cc(Nc2cnc(C#N)cn2)n[nH]1 [Prexasertib] + O=C(c1cc(Cc2n[nH]c(=O)c3ccccc23)ccc1F)N1CCN(C(=O)C2CC2)CC1 [Olaparib] (first compound max 1 µM, 7x7, partner max 10 µM) | 0.834 | 0.747 | 0.424 | 0.555 | 0.795 | 0.58 | 0.301 | 0.408 | 0.801 | 0.387 | 0.383 | 0.412 | 1 | 0.923 | 0.797 | 0.964 | 0.779 | 0.614 | 0.593 | -0.0102
6 | COc1cc2c(cc1OCCCCCOc1cc3c(cc1OC)C(=O)N1C=C(C)C[C@H]1C=N3)N=C[C@@H]1CC(C)=CN1C2=O [SG3199] + O=C(c1cc(Cc2n[nH]c(=O)c3ccccc23)ccc1F)N1CCN(C(=O)C2CC2)CC1 [Olaparib] (first compound max 0.001 µM, 7x7, partner max 10 µM) | 0.12 | 0.172 | 0.079 | 0.138 | 0.114 | 0.0922 | 0.0839 | 0.0887 | 0.137 | 0.0512 | 0.175 | 0.0991 | 0.958 | 0.878 | 0.133 | 0.228 | 0.214 | 0.204 | 0.104 | -0.0392
7 | CCc1c2c(nc3ccc(O)cc13)-c1cc3c(c(=O)n1C2)COC(=O)[C@]3(O)CC [SN-38] + CN(C)CCCOc1ccc(-c2ccc3ncc4c(c3c2)n(C2CCOCC2)c(=O)n4C)cn1 [AZD0156] (first compound max 0.3 µM, 7x7, partner max 1 µM) | 0.444 | 0.925 | 0.838 | 0.586 | 0.803 | 0.246 | 0.624 | 0.261 | 0.532 | 0.406 | 0.231 | 0.514 | 1 | 1 | 0.463 | 0.946 | 0.978 | 0.336 | 0.258 | 0.0208
8 | C[C@@H](c1ccc2nccn2c1)n1nnc2ncc(-c3cnn(C)c3)nc21 [Savolitinib] + CC1(C)CCC(CN2CCN(c3ccc(C(=O)NS(=O)(=O)c4ccc(NCC5CCOCC5)c([N+](=O)[O-])c4)c(Oc4cnc5[nH]ccc5c4)c3)CC2)=C(c2ccc(Cl)cc2)C1 [Venetoclax] (first compound max 1 µM, 7x7, partner max 1 µM) | 0.139 | 0.153 | 0.125 | 0.877 | 0.236 | 0.143 | 0.117 | 0.152 | 0.0972 | 0.144 | 0.127 | 0.299 | 0.142 | 0.199 | 0.115 | 0.15 | 0.182 | 0.0587 | 0.101 | -0.0368
9 | C[C@@H](c1ccc2nccn2c1)n1nnc2ncc(-c3cnn(C)c3)nc21 [Savolitinib] + Cc1c2c(nn1C)CSCc1cc(n(C)n1)CSc1cc(c3ccccc3c1)OCCCc1c(C(=O)O)n(C)c3c-2c(Cl)ccc13 [AZD5991] (first compound max 1 µM, 7x7, partner max 1 µM) | 0.163 | 0.188 | 0.114 | 0.977 | 0.836 | 0.21 | 0.157 | 0.134 | 0.195 | 0.119 | 0.936 | 0.551 | 1 | 0.244 | 0.491 | 0.652 | 0.204 | 1 | 0.14 | -0.0166
10 | Cn1cnc2c(F)c(Nc3ccc(Br)cc3Cl)c(C(=O)NOCCO)cc21 [Selumetinib] + C=CCn1c(=O)c2cnc(Nc3ccc(N4CCN(C)CC4)cc3)nc2n1-c1cccc(C(C)(C)O)n1 [AZD1775] (first compound max 10 µM, partner max 1 µM) | 0.652 | 0.78 | 0.282 | 0.681 | 0.301 | 0.669 | 0.464 | 0.258 | 0.811 | 0.194 | 0.784 | 0.192 | 0.984 | 0.432 | 0.553 | 0.723 | 0.262 | 0.682 | 0.528 | 0.0309
11 | Cn1cnc2c(F)c(Nc3ccc(Br)cc3Cl)c(C(=O)NOCCO)cc21 [Selumetinib] + CC(C)n1c(=O)n(C)c2cnc3cc(F)c(-c4ccc(OCCCN5CCCCC5)nc4)cc3c21 [AZD1390] (first compound max 10 µM, 7x7, partner max 0.3 µM) | 0.113 | 0.552 | 0.052 | 0.434 | 0.264 | 0.24 | 0.252 | 0.101 | 0.15 | 0.0731 | 0.278 | 0.199 | 0.299 | 0.194 | 0.0857 | 0.25 | 0.107 | 0.179 | 0.516 | -0.0078
12 | Cn1cnc2c(F)c(Nc3ccc(Br)cc3Cl)c(C(=O)NOCCO)cc21 [Selumetinib] + CCN(CCO)CCCOc1ccc2c(Nc3cc(CC(=O)Nc4cccc(F)c4)[nH]n3)ncnc2c1 [AZD2811] (first compound max 10 µM, 7x7, partner max 1 µM) | 0.173 | 0.653 | 0.342 | 0.454 | 0.269 | 0.297 | 0.349 | 0.152 | 0.519 | 0.201 | 0.662 | 0.281 | 0.915 | 0.765 | 0.0527 | 0.295 | 0.237 | 0.94 | 0.533 | 0.0874
13 | Cn1cnc2c(F)c(Nc3ccc(Br)cc3Cl)c(C(=O)NOCCO)cc21 [Selumetinib] + C[C@@H]1COCCN1C2=NC(=NC(=C2)C3(CC3)[S@](=N)(=O)C)C4=C5C=CNC5=NC=C4 [AZD6738] (first compound max 10 µM, 7x7, partner max 10 µM) | 0.186 | 0.734 | 0.56 | 0.857 | 0.292 | 0.522 | 0.501 | 0.217 | 0.675 | 0.173 | 0.742 | 0.34 | 1 | 0.626 | 0.396 | 0.524 | 0.291 | 0.636 | 0.616 | 0.0554
